From publication PMC11442132, “Discovery of β‐nitrostyrene derivatives as potential quorum sensing inhibitors for biofilm inhibition and antivirulence factor therapeutics against Serratia marcescens” (mLife, 2024)

Target: T1, SmaR (Serratia marcescens, UniProt Q14RS3)
T1 construct: pure recombinant protein
Assay: microscale thermophoresis
Format: binding

T1 sequence (Q14RS3 1-248): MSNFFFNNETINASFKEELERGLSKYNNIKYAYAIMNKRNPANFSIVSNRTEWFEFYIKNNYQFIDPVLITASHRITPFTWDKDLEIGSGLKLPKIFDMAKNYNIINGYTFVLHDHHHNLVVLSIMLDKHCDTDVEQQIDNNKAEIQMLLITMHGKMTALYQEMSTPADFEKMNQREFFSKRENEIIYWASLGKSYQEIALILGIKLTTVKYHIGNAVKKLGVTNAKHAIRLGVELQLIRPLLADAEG

Q: `Cc1ccc(/C=C/[N+](=O)[O-])cc1` [compound 28, (E)‐1‐methyl‐4‐(2‐nitrovinyl)benzene] was tested. Which Kd did it give?
A: Its Kd is 38.9 µM.
